Reference: patent US5141627A, “Chelators whose affinity for calcium ion is increased by illumination” (The Regents of the University of California, priority 1989, dated 1992)
Values joined by “and” are separate entries in the source; they are usually repeats but may differ in a detail not shown here. Equal entries are not always repeated. Where two headings read alike, the source gives them in different places. Each block holds one molecule with its values, some of them ahead of it.

Columns and labels:
[1] = Ca2+ affinity by UV spectra during titration of EGTA or HEEDTA buffers; assay type: binding; settings: after photolysis; Hill plot / equilibrium measurements; read-out: Kd (Ca2+) / affinity after photolysis
Protocol: The titration was done at 22° C. with 10 mL of 100 mM KCl, 10 mM K-MOPS, 10 mM K2 H.HEEDTA, and 14 […] diazo-2 as starting materials, adjusting the pH to 7.24, recording the spectrum, and then discarding 1.0 mL of this solution and replacing with 1.0 mL of 100 mM KCl, 10 mM K.MOPS, 10 mM KCa.HEEDTA, 14 μM diazo-2, readjusting the pH to 7.24, and recording the spectra, which was then in 9 mM K2H.HEEDTA. Subsequent iterations to reach n mM KCa.HEEDTA, (10-n) mM HEEDTA, n=2-10, were done by discarding 10.0/(11-n) mL and replacing with equal volumes of the 10mM KCa.HEEDTA, 14 μM diazo-2 stock. After n=10 had been reached to give free Ca^2+ between 10^-5 and 10^-4 M, addition of 1 mM CaCl2 had no further effect on the spectrum. For clarity only six spectra are including in the figure, n=0, 2, 4, 6, 8, and 10. Each spectrum is labeled with the calculated free [Ca^2+ ] imposed by the HEEDTA buffer, assuming a log effective stability constant of 5.55 at pH 7.24.
The phenylacetate was produced by irradiating a 30 μM solution of diazo-2 in 100 mM KCl, 10 mM Tris.HCl, 10 mM K2 H.HEEDTA, pH 8.40, with Spectroline lamp at 365 nm to completion. The titration was then performed as in A but the pH was maintained at 8.40, at which the calculated log effective stability is constant for HEEDTA was 6.60.
Ca^2+ -binding constants for chelators before and after photolysis were determined by monitoring UV spectra during titration of EGTA or HEEDTA buffers to varying free Ca^2+ levels.
Either the ratio of, for example, [Ca.EGTA] to free [EGTA] was adjusted at a constant pH, or the pH was varied while [Ca.EGTA]=[EGTA]. These two approaches gave equivalent answers for pH>7 whenever directly tested, because of the pH insensitivity of BAPTA-like ligands (see FIG. 1 legend for more details). The apparent dissociation constants of Ca.EGTA and Ca.HEEDTA were calculated as described by R. Y. Tsien (1980); see also R. Y. Tsien, et al. (1986), S. R. Adams, et al. (1980), Grynkiewicz, et al., (1985), and Jackson, et al. (1987).

[2] = Ca2+ binding kinetics of photolyzed diazo-2 by competition with HEEDTA after flash photolysis
Source text: Having determined the rate at which the high-affinity chelator was photochemically generated from diazo-2, the kinetics of Ca^2+ binding by the photolysis of diazo-2 was examined relying on the 1:1 competition between protons and Ca^2+ for the chelator HEEDTA, i.e.:
If diazo-2 is photolyzed in the presence of HEEDTA partially saturated with Ca^2+, the photo-generated Compound 3c would take some Ca^2+ away from HEEDTA. The newly freed HEEDTA would then take up some protons and lead to an alkalinization of the sample. The shift in Ca^2+ -binding equilibrium is thus visualized with an indicator like cresol red. Control experiments indicate that at HEEDTA buffer concentrations ≥2 mM, the intrinsic kinetics of the Ca^2+ -HEEDTA equilibrium was no longer limiting the speed of the final alkalinization.
It is noted that the solution first acidified owing to the formation and dissociation of the product carboxylic acid, but subsequently began realkalinizing as the newly formed product chelator competed with HEEDTA for Ca^2+. The time constant of the realkalinization was 2.8 ms (Table I). […]
FIG. 2B is a flash photolysis record of the kinetics of Ca^2+ uptake by photolyzed diazo-2. […] Monitoring the light transmission at 572 nm was performed as for A. Each small division of the ordinate corresponds to 3.4×10^-4 absorbance unit. […] As the photolyzed diazo-20 took Ca^2+ away from HEEDTA, the freed HEEDTA bound protons and thus alkalinized the solution, a process reflected by the increase in cresol red absorbance (i.e., decline in light transmission at 572 nm).
Kinetics of the conversion of diazo-2 and diazo-3 to the carboxylic acid products and the kinetics of Ca^2+ binding by photolyzed diazo-2 were measured by flash photolysis and pH monitoring. […]

[3] = acid-base indicator; cited from earlier work
[4] = Mg.EGTA incl. monoprotonated form, pH 7.60, 0.1M ionic strength; assumed; read-out: apparent dissociation constant for Mg complex; cited from earlier work
[5] = cited from earlier work
cells = settings: photolyzed in cells; cited from earlier work

Kd [1]: ~0.073 µM and 0.073 µM
time constant of realkalinization ([2]; 70 μM diazo-2, 2 mM HEEDTA half-saturated with Ca2+, free [Ca2+] 377 nM): 2.8 ms
koff, unimolecular rate constant for dissociation of Ca2+ complex ([2]; photolyzed diazo-2): 58 s⁻¹
kon, bimolecular rate constant for binding of Ca2+ ([2]; photolyzed diazo-2): 8e+08 M⁻¹ s⁻¹
Structure (SMILES): Cc1ccc(N(CC(=O)O)CC(=O)O)c(OCCOc2cc(CC(=O)O)ccc2N(CC(=O)O)CC(=O)O)c1 [Compound 3c]

Structure (SMILES): Cc1cc(C2(c3ccc(O)c(C)c3)OS(=O)(=O)c3ccccc32)ccc1O [Cresol red]
pKa [3]: 8.2

Structure (SMILES): O=C(O)CN(CCOCCOCCN(CC(=O)O)CC(=O)O)CC(=O)O [EGTA, ethylenebis(oxyethylenenitrilo)tetraacetic acid]
Kd [4]: 6000 µM

Structure (SMILES): Cc1ccc(N(CC(=O)O)CC(=O)O)c(OCCOc2cc(-c3c4cc(Cl)c(=O)cc-4oc4cc(O)c(Cl)cc34)ccc2N(CC(=O)O)CC(=O)O)c1 [Fluo-3]
enhancement of fluorescence quantum yield by Ca2+ binding ([5]; Ca2+ binding): about 40 fold
Kd ([5]; read-out: Kd (Ca2+) of fluorescent indicator): 0.4 µM

Structure (SMILES): Cc1ccc(N(CC(=O)O)CC(=O)O)c(OCCOc2cc(C(O)c3cc4c(cc3[N+](=O)[O-])OCO4)ccc2N(CC(=O)O)CC(=O)O)c1 (stereo not drawn) [nitr-5]
irradiation damage on photolysis in cells (in words) (cells): without noticeable irradiation damage
